# Patent US20100078393A1, “BIOCIDAL COMPOSITIONS AND METHODS OF USE” (priority 2008, published 2010)
# Assays:
# [1] = tested on: oil field isolated anaerobic SRB consortium; assay: Biocidal efficacy against anaerobic SRB at 40° C., serial dilution method; format: cell-based, sulfate-reducing bacteria (SRB); settings: for Concentration required for complete bacterial kill in 1 hour, used alone / Concentration required for 3 log bacterial kill in 2 hours, used alone: ppm active; for Concentration required for complete bacterial kill in 1 hour, used alone: 40° C.; for Concentration required for 3 log bacterial kill in 2 hours, used in combination: concentration of the labelled component
# Description: (§1) The synergy indexes reported in the following examples are calculated using the following equation:
# (§2) Synergy Index=Ca/CA+Cb/CB
# (§3) A synergy index (SI) of 1 indicates additivity, a synergy index of less than 1 indicates synergy, and a synergy index greater than 1 indicates antagonism.
# (§4) Various methods known to those skilled in the art can be used for evaluating biocidal efficacy. In some of the examples below, a serial dilution technique is used, which determines viable bacteria remaining after a treatment regimen. The method is based or adapted (e.g., for high temperature testing or for the presence of sulfide) from the methodology described in inventor's pending international application PCT/US08/075755, filed Sep. 10, 2008, which is incorporated herein by reference.
# Inside an anaerobic chamber (Bactron III), a deaerated sterile salt solution (3.1183 g of NaCl, 1.3082 mg of NaHCO3, 47.70 mg of KCl, 72.00 mg of CaCl2, 54.49 mg of MgSO4, 172.28 mg of Na2SO4, 43.92 mg of Na2CO3 in 1 L water) is contaminated with an oil field isolated anaerobic SRB consortium at final bacterial concentrations of about 10^7 CFU/mL. […] […] Bacterial log reduction is then calculated.
# [2] = tested on: Enterobacter aerogenes ATCC 13048; assay: Biocidal efficacy against aerobic bacteria, log reduction after 1 hour at 37° C.; format: cell-based; settings: for Concentration required to achieve 3 log bacterial reduction in 1 hour, used in combination: active weight ratio 1:6; for Concentration required to achieve 3 log bacterial reduction in 1 hour, used alone: ppm active
# Description: as §1, §2, §3, §4
# (§5) A sterile NaCl solution (0.85%) is contaminated with bacterial inoculums at final bacterial concentration of approximately 10^6 CFU/ml. Then, biocide solution (single or in combination) is added into the bacterial suspension at various concentrations and immediately mixed well. After the mixtures are incubated at 37° C. for 1 hour, the viable bacteria left in the solution are determined. Bacterial log reduction is then calculated.
# [3] = tested on: Klebsiella pneumoniae ATCC 8308; assay: as above; format: cell-based; settings: for Concentration required to achieve 3 log bacterial reduction in 1 hour, used in combination: active weight ratio 1:6; for Concentration required to achieve 3 log bacterial reduction in 1 hour, used alone: ppm active
# Description: as §1, §2, §3, §4, §5
# [4] = tested on: Staphylococcus aureus ATCC 6538; assay: as above; format: cell-based; settings: for Concentration required to achieve 3 log bacterial reduction in 1 hour, used in combination: active weight ratio 1:6; for Concentration required to achieve 3 log bacterial reduction in 1 hour, used alone: ppm active
# Description: as §1, §2, §3, §4, §5
# [5] = tested on: Escherichia coli ATCC 11229; assay: as above; format: cell-based; settings: for Concentration required to achieve 3 log bacterial reduction in 1 hour, used in combination: active weight ratio 1:6; for Concentration required to achieve 3 log bacterial reduction in 1 hour, used alone: ppm active
# Description: as §1, §2, §3, §4, §5
# [6] = tested on: Pseudomonas aeruginosa ATCC 10145; assay: as above; format: cell-based; settings: for Concentration required to achieve 3 log bacterial reduction in 1 hour, used in combination: active weight ratio 1:6; for Concentration required to achieve 3 log bacterial reduction in 1 hour, used alone: ppm active
# Description: as §1, §2, §3, §4, §5
# [7] = tested on: Bacillus subtillus ATCC 8473; assay: as above; format: cell-based; settings: for Concentration required to achieve 3 log bacterial reduction in 1 hour, used in combination: active weight ratio 1:6; for Concentration required to achieve 3 log bacterial reduction in 1 hour, used alone: ppm active
# Description: as §1, §2, §3, §4, §5
# [8] = tested on: Pseudomonas putida ATCC 49128; assay: as above; format: cell-based; settings: for Concentration required to achieve 3 log bacterial reduction in 1 hour, used in combination: active weight ratio 1:6; for Concentration required to achieve 3 log bacterial reduction in 1 hour, used alone: ppm active
# Description: as §1, §2, §3, §4, §5
# [9] = concentration of the labelled component in glutaraldehyde + 4,4-dimethyl-oxazolidine combination
# [10] = concentration of the labelled component in glutaraldehyde + 7-ethyl-bicyclooxazolidine combination
Structure (SMILES),"Concentration required for complete bacterial kill in 1 hour, used alone [1]","Concentration required to achieve 3 log bacterial reduction in 1 hour, used in combination [2, 9]","Concentration required to achieve 3 log bacterial reduction in 1 hour, used alone [2]","Concentration required to achieve 3 log bacterial reduction in 1 hour, used in combination [3, 9]","Concentration required to achieve 3 log bacterial reduction in 1 hour, used alone [3]","Concentration required to achieve 3 log bacterial reduction in 1 hour, used in combination [4, 9]","Concentration required to achieve 3 log bacterial reduction in 1 hour, used alone [4]","Concentration required to achieve 3 log bacterial reduction in 1 hour, used in combination [5, 9]","Concentration required to achieve 3 log bacterial reduction in 1 hour, used alone [5]","Concentration required to achieve 3 log bacterial reduction in 1 hour, used in combination [6, 9]","Concentration required to achieve 3 log bacterial reduction in 1 hour, used alone [6]","Concentration required to achieve 3 log bacterial reduction in 1 hour, used in combination [7, 9]","Concentration required to achieve 3 log bacterial reduction in 1 hour, used alone [7]","Concentration required to achieve 3 log bacterial reduction in 1 hour, used in combination [8, 9]","Concentration required to achieve 3 log bacterial reduction in 1 hour, used alone [8]","Concentration required for 3 log bacterial kill in 2 hours, used alone [1]","Concentration required to achieve 3 log bacterial reduction in 1 hour, used in combination [2, 10]","Concentration required to achieve 3 log bacterial reduction in 1 hour, used in combination [3, 10]","Concentration required to achieve 3 log bacterial reduction in 1 hour, used in combination [4, 10]","Concentration required to achieve 3 log bacterial reduction in 1 hour, used in combination [5, 10]",further results
"CC1(C)COCN1 [4,4-dimethyl-oxazolidine]",>1600.0 ppm,111.3 ppm,296.6 ppm,74.2 ppm,197.8 ppm,111.3 ppm,296.6 ppm,111.3 ppm,197.8 ppm,111.3 ppm,296.6 ppm,111.3 ppm,296.6 ppm,111.3 ppm,296.6 ppm,,,,,,
O=CCCCC=O [Glutaraldehyde],26.3 ppm,18.6 ppm,44.5 ppm,12.4 ppm,44.5 ppm,18.6 ppm,44.5 ppm,18.6 ppm,44.5 ppm,18.6 ppm,44.5 ppm,18.6 ppm,44.5 ppm,18.6 ppm,44.5 ppm,8.9 ppm,18.6 ppm,12.4 ppm,18.6 ppm,12.4 ppm,"Concentration required to achieve 3 log bacterial reduction in 1 hour, used in combination [6, 10]: 18.6 ppm; Concentration required to achieve 3 log bacterial reduction in 1 hour, used in combination [7, 10]: 12.4 ppm; Concentration required to achieve 3 log bacterial reduction in 1 hour, used in combination [8, 10]: 18.6 ppm"
"CCC12COCN1COC2 [7-ethyl-bicyclooxazolidine, 5-ethyl-1-aza-3,7-dioxabicyclo[3.3.0]octane]",,,296.6 ppm,,197.8 ppm,,296.6 ppm,,296.6 ppm,,296.6 ppm,,296.6 ppm,,296.6 ppm,>2025 ppm,111.3 ppm,74.2 ppm,111.3 ppm,74.2 ppm,"Concentration required for 3 log bacterial kill in 2 hours, used in combination ([1]; glutaraldehyde:7-ethyl-bicyclooxazolidine weight ratio 1:1): 5.9 ppm; Concentration required for 3 log bacterial kill in 2 hours, used in combination ([1]; glutaraldehyde:7-ethyl-bicyclooxazolidine weight ratio 1:2): 11.9 ppm; Concentration required for 3 log bacterial kill in 2 hours, used in combination ([1]; glutaraldehyde:7-ethyl-bicyclooxazolidine weight ratio 1:5): 29.6 ppm; Concentration required for 3 log bacterial kill in 2 hours, used in combination ([1]; glutaraldehyde:7-ethyl-bicyclooxazolidine weight ratio 1:10): 39.5 ppm; Concentration required for 3 log bacterial kill in 2 hours, used in combination ([1]; glutaraldehyde:7-ethyl-bicyclooxazolidine weight ratio 1:20): 52.7 ppm; Concentration required for 3 log bacterial kill in 2 hours, used in combination ([1]; glutaraldehyde:7-ethyl-bicyclooxazolidine weight ratio 2:1): 4.4 ppm; Concentration required for 3 log bacterial kill in 2 hours, used in combination ([1]; glutaraldehyde:7-ethyl-bicyclooxazolidine weight ratio 5:1): 1.2 ppm; Concentration required for 3 log bacterial kill in 2 hours, used in combination ([1]; glutaraldehyde:7-ethyl-bicyclooxazolidine weight ratio 10:1): 0.6 ppm; Concentration required for 3 log bacterial kill in 2 hours, used in combination ([1]; glutaraldehyde:7-ethyl-bicyclooxazolidine weight ratio 20:1): 0.3 ppm; Concentration required to achieve 3 log bacterial reduction in 1 hour, used in combination [6, 10]: 111.3 ppm; Concentration required to achieve 3 log bacterial reduction in 1 hour, used in combination [7, 10]: 74.2 ppm; Concentration required to achieve 3 log bacterial reduction in 1 hour, used in combination [8, 10]: 111.3 ppm"
